US20260028326A1, “COMPOUND BASED ON ISOINDOLINE-SUBSTITUTED GLUTARIMIDE BACKBONE AND USE THEREOF” (GLUETACS THERAPEUTICS (SHANGHAI) CO., LTD., priority 2022, published 2026)

biological target: human Cereblon WT GST-tagged protein (Homo sapiens (Human), UniProt Q96SW2); assay: CRBN-binding affinity, HTRF (CEREBLON BINDING kit)
Procedure: The CEREBLON BINDING kits (specification: 10,000 tests; product number: Catalog #64BDCRBNPEH; CISBIO company) was used to determine the CRBN binding ability of the compounds to be tested through a HTRF method (homogeneous time-resolved fluorescence). The specific methods are as follows: • 1. […] Then, 2.5 μL of human Cereblon WT GST-tagged protein solution was added to each well. Finally, 5 μL of the thoroughly mixed Thalidomide-Re reagent and GST Eu antibody working solution were added to each of the aforementioned wells. […] The blank control wells were sequentially added with 2.5 μL of diluent #9 (1×) solution, 2.5 μL of PROTAC binding buffer, and 5 μL of thoroughly mixed Thalidomide-Re reagent and GST Eu antibody working solution. • 4.
The corresponding CRBN binding inhibition rate was calculated using the following method: […]

human Cereblon WT GST-tagged protein, sequence (Q96SW2 whole entry): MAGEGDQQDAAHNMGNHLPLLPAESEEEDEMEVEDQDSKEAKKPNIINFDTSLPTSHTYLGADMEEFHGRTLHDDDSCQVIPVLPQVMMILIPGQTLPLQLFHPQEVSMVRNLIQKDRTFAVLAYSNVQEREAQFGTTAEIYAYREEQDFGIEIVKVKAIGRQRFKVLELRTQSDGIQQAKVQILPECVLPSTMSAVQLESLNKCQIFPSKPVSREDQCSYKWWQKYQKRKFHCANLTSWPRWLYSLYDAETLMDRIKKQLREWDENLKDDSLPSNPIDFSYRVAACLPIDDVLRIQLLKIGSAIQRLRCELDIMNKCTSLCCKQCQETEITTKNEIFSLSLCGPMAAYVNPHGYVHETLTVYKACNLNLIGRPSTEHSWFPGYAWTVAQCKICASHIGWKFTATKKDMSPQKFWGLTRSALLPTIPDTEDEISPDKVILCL

Row | SMILES | IC50
1 | O=C1CCC(N2C(=O)c3ccc(N4CC5CC(C4)N5Cc4ccccc4-c4ccc(Cl)cc4)cc3C2=O)C(=O)N1 (stereo not drawn) [GT-05373, 5-(6-((4′-chloro-[1,1′-biphenyl]-2-yl)methyl)-3,6-diazabicyclo[3.1.1]heptan-3-yl)-2-(2,6-dioxopiperidin-3-yl)isoindoline-1,3-dione] | 1490 nM
2 | O=C1CCC(N2C(=O)c3ccc(N4CC5CCC4CN5Cc4ccccc4-c4ccc(Cl)cc4)cc3C2=O)C(=O)N1 (stereo not drawn) [GT-05374, 5-(5-((4′-chloro-[1,1′-biphenyl]-2-yl)methyl)-2,5-diazabicyclo[2.2.2]octan-2-yl)-2-(2,6-dioxopiperidin-3-yl)isoindoline-1,3-dione] | 520 nM
3 | CC1(C)CCC(CN2C3CC2CN(c2ccc4c(c2)C(=O)N(C2CCC(=O)NC2=O)C4=O)C3)=C(c2ccc(Cl)cc2)C1 (stereo not drawn) [GT-05378, 5-(6-((4′-chloro-5,5-dimethyl-3,4,5,6-tetrahydro-[1,1′-biphenyl]-2-yl)methyl)-3,6-diazabicyclo[3.1.1]heptan-3-yl)-2-(2,6-dioxopiperidin-3-yl)isoindoline-1,3-dione] | 1770 nM
4 | CC1(C)CCC(CN2CC3CC(C2)N3c2ccc3c(c2)C(=O)N(C2CCC(=O)NC2=O)C3=O)=C(c2ccc(F)cc2)C1 (stereo not drawn) [GT-05386, 2-(2,6-dioxopiperidin-3-yl)-5-(3-((4′-fluoro-5,5-dimethyl-3,4,5,6-tetrahydro-[1,1′-biphenyl]-2-yl)methyl)-3,6-diazabicyclo[3.1.1]heptan-6-yl)isoindoline-1,3-dione] | 1460 nM
5 | CC1(C)CCC(CN2C3CC2CN(c2ccc4c(c2)C(=O)N(C2CCC(=O)NC2=O)C4=O)C3)=C(c2ccc(F)cc2)C1 (stereo not drawn) [GT-05387, 2-(2,6-dioxopiperidin-3-yl)-5-(6-((4′-fluoro-5,5-dimethyl-3,4,5,6-tetrahydro-[1,1′-biphenyl]-2-yl)methyl)-3,6-diazabicyclo[3.1.1]heptan-3-yl)isoindoline-1,3-dione] | 810 nM
6 | CC1(C)CCC(CN2CCN(Cc3cc(F)c4c(c3)CN(C3CCC(=O)NC3=O)C4=O)CC2)=C(c2ccc(F)cc2)C1 (stereo not drawn) [GT-05392, 3-(7-fluoro-5-((4-((4′-fluoro-5,5-dimethyl-3,4,5,6-tetrahydro-[1,1′-biphenyl]-2-yl)methyl)piperazin-1-yl)methyl)-1-oxoisoindolin-2-yl)piperidine-2,6-dione] | 440 nM
7 | CC1(C)CCC(CN2CCN(Cc3cccc4c3CN(C3CCC(=O)NC3=O)C4=O)CC2)=C(c2ccc(F)cc2)C1 (stereo not drawn) [GT-05393, 3-(4-((4-((4′-fluoro-5,5-dimethyl-3,4,5,6-tetrahydro-[1,1′-biphenyl]-2-yl)methyl)piperazin-1-yl)methyl)-1-oxoisoindolin-2-yl)piperidine-2,6-dione] | 340 nM
8 | CC1(C)CCC(CN2CCN(Cc3ccc4c(c3)C(=O)N(C3CCC(=O)NC3=O)C4)CC2)=C(c2ccc(F)cc2)C1 (stereo not drawn) [GT-05394, 3-(6-((4-((4′-fluoro-5,5-dimethyl-3,4,5,6-tetrahydro-[1,1′-biphenyl]-2-yl)methyl)piperazin-1-yl)methyl)-1-oxoisoindolin-2-yl)piperidine-2,6-dione] | 490 nM
9 | CC1(C)CCC(C(=O)N2CC3CN(Cc4ccc5c(c4)CN(C4CCC(=O)NC4=O)C5=O)CC3C2)=C(c2ccc(F)cc2)C1 (stereo not drawn) [GT-05405, 3-(5-((5-(4′-fluoro-5,5-dimethyl-3,4,5,6-tetrahydro-[1,1′-biphenyl]-2-carbonyl)hexahydropyrrolo[3,4-c]pyrrol-2(1H)-yl)methyl)-1-oxoisoindolin-2-yl)piperidine-2,6-dione] | 500 nM
10 | CC1(C)CCC(CN2C3CCC2CN(c2ccc4c(c2)CN(C2CCC(=O)NC2=O)C4=O)C3)=C(c2ccc(Cl)cc2)C1 (stereo not drawn) [GT-05429, 3-(5-(8-((4′-chloro-5,5-dimethyl-3,4,5,6-tetrahydro-[1,1′-biphenyl]-2-yl)methyl)-3,8-diazabicyclo[3.2.1]octan-3-yl)-1-oxoisoindolin-2-yl)piperidine-2,6-dione] | 1490 nM
11 | CC1(C)CCC(CN2CC3CC(C2)N3C(=O)c2ccc3c(c2)CN(C2CCC(=O)NC2=O)C3=O)=C(c2ccc(Cl)cc2)C1 (stereo not drawn) [GT-05440, 3-(5-(3-((4′-chloro-5,5-dimethyl-3,4,5,6-tetrahydro-[1,1′-biphenyl]-2-yl)methyl)-3,6-diazabicyclo[3.1.1]heptane-6-carbonyl)-1-oxoisoindolin-2-yl)piperidine-2,6-dione] | 940 nM
12 | CC1(C)CCC(CN2C3CCC2CN(C(=O)c2ccc4c(c2)CN(C2CCC(=O)NC2=O)C4=O)C3)=C(c2ccc(Cl)cc2)C1 (stereo not drawn) [GT-05446, 3-(5-(8-((4′-chloro-5,5-dimethyl-3,4,5,6-tetrahydro-[1,1′-biphenyl]-2-yl)methyl)-3,8-diazabicyclo[3.2.1]octane-3-carbonyl)-1-oxoisoindolin-2-yl)piperidine-2,6-dione] | 1870 nM

Further lines, results first:

Row | IC50 | SMILES
13 | 110 nM | CC1(C)CCC(CN2CC3CCC2CN3c2ccc3c(c2)C(=O)N(C2CCC(=O)NC2=O)C3=O)=C(c2ccc(Cl)cc2)C1 (stereo not drawn) [GT-05379, 5-(5-((4′-chloro-5,5-dimethyl-3,4,5,6-tetrahydro-[1,1′-biphenyl]-2-yl)methyl)-2,5-diazabicyclo[2.2.2]octan-2-yl)-2-(2,6-dioxopiperidin-3-yl)isoindoline-1,3-dione]
14 | 410 nM | CC1(C)CCC(CN2CC3CCC2CN3c2ccc3c(c2)C(=O)N(C2CCC(=O)NC2=O)C3=O)=C(c2ccc(F)cc2)C1 (stereo not drawn) [GT-05388, 2-(2,6-dioxopiperidin-3-yl)-5-(5-((4′-fluoro-5,5-dimethyl-3,4,5,6-tetrahydro-[1,1′-biphenyl]-2-yl)methyl)-2,5-diazabicyclo[2.2.2]octan-2-yl)isoindoline-1,3-dione]
15 | 1050 nM | CC1(C)CCC(CN2CC3CN(Cc4ccc5c(c4)CN(C4CCC(=O)NC4=O)C5=O)CC3C2)=C(c2ccc(F)cc2)C1 (stereo not drawn) [GT-05398, 3-(5-((5-((4′-fluoro-5,5-dimethyl-3,4,5,6-tetrahydro-[1,1′-biphenyl]-2-yl)methyl)hexahydropyrrolo[3,4-c]pyrrol-2(1H)-yl)methyl)-1-oxoisoindolin-2-yl)piperidine-2,6-dione]
16 | 1480 nM | CC1(C)CCC(C(=O)N2CCN(Nc3ccc4c(c3)CN(C3CCC(=O)NC3=O)C4=O)CC2)=C(c2ccc(Cl)cc2)C1 (stereo not drawn) [GT-05417, 3-(5-((4-(4′-chloro-5,5-dimethyl-3,4,5,6-tetrahydro-[1,1′-biphenyl]-2-carbonyl)piperazin-1-yl)amino)-1-oxoisoindolin-2-yl)piperidine-2,6-dione]
17 | 540 nM | CC1(C)CCC(C(=O)N2CCC(Cc3ccc4c(c3)CN(C3CCC(=O)NC3=O)C4=O)CC2)=C(c2ccc(Cl)cc2)C1 (stereo not drawn) [GT-05418, 3-(5-((1-(4′-chloro-5,5-dimethyl-3,4,5,6-tetrahydro-[1,1′-biphenyl]-2-carbonyl)piperidin-4-yl)methyl)-1-oxoisoindolin-2-yl)piperidine-2,6-dione]
18 | 720 nM | CC1(C)CCC(C(=O)N2CC(Cc3ccc4c(c3)CN(C3CCC(=O)NC3=O)C4=O)C2)=C(c2ccc(Cl)cc2)C1 (stereo not drawn) [GT-05419, 3-(5-((1-(4′-chloro-5,5-dimethyl-3,4,5,6-tetrahydro-[1,1′-biphenyl]-2-carbonyl)azetidin-3-yl)methyl)-1-oxoisoindolin-2-yl)piperidine-2,6-dione]
19 | 950 nM | CC1(C)CCC(CN2CC(O)(C(O)c3ccc4c(c3)CN(C3CCC(=O)NC3=O)C4=O)C2)=C(c2ccc(Cl)cc2)C1 (stereo not drawn) [GT-05427, 3-(5-((1-((4′-chloro-5,5-dimethyl-3,4,5,6-tetrahydro-[1,1′-biphenyl]-2-yl)methyl)-3-hydroxyazetidin-3-yl)(hydroxy)methyl)-1-oxoisoindolin-2-yl)piperidine-2,6-dione]
20 | 1080 nM | CC1(C)CCC(CN2CC(Cc3ccc4c(c3)CN(C3CCC(=O)NC3=O)C4=O)C2)=C(c2ccc(Cl)cc2)C1 (stereo not drawn) [GT-05428, 3-(5-((1-((4′-chloro-5,5-dimethyl-3,4,5,6-tetrahydro-[1,1′-biphenyl]-2-yl)methyl)azetidin-3-yl)methyl)-1-oxoisoindolin-2-yl)piperidine-2,6-dione]
21 | 1570 nM | CC1(C)CCC(CN2C[C@H]3C[C@@H]2CN3C(=O)c2ccc3c(c2)CN(C2CCC(=O)NC2=O)C3=O)=C(c2ccc(Cl)cc2)C1 (stereo partly drawn) [GT-05441, 3-(5-((1R,4R)-5-((4′-chloro-5,5-dimethyl-3,4,5,6-tetrahydro-[1,1′-biphenyl]-2-yl)methyl)-2,5-diazabicyclo[2.2.1]heptane-2-carbonyl)-1-oxoisoindolin-2-yl)piperidine-2,6-dione]
22 | 670 nM | CC1(C)CCC(CN2C[C@@H]3C[C@H]2CN3C(=O)c2ccc3c(c2)CN(C2CCC(=O)NC2=O)C3=O)=C(c2ccc(Cl)cc2)C1 (stereo partly drawn) [GT-05442, 3-(5-((1S,4S)-5-((4′-chloro-5,5-dimethyl-3,4,5,6-tetrahydro-[1,1′-biphenyl]-2-yl)methyl)-2,5-diazabicyclo[2.2.1]heptane-2-carbonyl)-1-oxoisoindolin-2-yl)piperidine-2,6-dione]
23 | 1910 nM | CC1(C)CCC(CN2CCN(C(=O)c3ccc4c(c3)CN(C3CCC(=O)NC3=O)C4=O)CC2)=C(c2ccc(Cl)cc2)C1 (stereo not drawn) [GT-05445, 3-(5-(4-((4′-chloro-5,5-dimethyl-3,4,5,6-tetrahydro-[1,1′-biphenyl]-2-yl)methyl)piperazine-1-carbonyl)-1-oxoisoindolin-2-yl)piperidine-2,6-dione]
24 | 1150 nM | CC1(C)CCC(CN2CC3CN(C(=O)c4ccc5c(c4)CN(C4CCC(=O)NC4=O)C5=O)CC3C2)=C(c2ccc(F)cc2)C1 (stereo not drawn) [GT-05447, 3-(5-(5-((4′-fluoro-5,5-dimethyl-3,4,5,6-tetrahydro-[1,1′-biphenyl]-2-yl)methyl)octahydropyrrolo[3,4-c]pyrrole-2-carbonyl)-1-oxoisoindolin-2-yl)piperidine-2,6-dione]
